Molecular target: farnesyl protein transferase
Test: Inhibition of farnesyl protein transferase (test of WO 95/10514)
Type: biochemical
Details: percent inhibition relative to DMSO vehicle control, IC50 estimated
Source text: The compounds of the invention can be tested by standard methods, for example by those published in published PCT application WO 95/10514 published Apr. 20, 1995 (starting at page 61), the disclosure of which is hereby incorporated herein by reference. Particularly relevant assays and studies include In vitro enzyme assays, Cell-Based Assays, Cell Mat Assays, and In Vivo Anti-Tumor Studies.
Such Assays and Studies indicate that compounds of the Formula I above are selective inhibitors of Ras-FPT and can be used as anti-tumor agents. The following Table presents IC50 values obtained in the test for Inhibition of farnesyl protein transferase, reported in published PCT application WO 95/10514. Percent inhibition was calculated relative to the DMSO vehicle control, and an IC50 value was estimated.

IC50 [nM] | Compound
3200 | CC(C)(C)OC(=O)N1CCC(CC(=O)N2CCC(=C3c4ccc(Cl)cc4SCc4cccnc43)CC2)CC1 [Example 11B, 1,1 -Dimethylethyl 4-[2-[4-(8-chloro-5,11-dihydro-[1]benzothiepino[4,3-b]pyridin-11-ylidene)-1-piperidinyl]2-oxoethyl]-1-piperidine-carboxylate]
1100 | O=C(CC1CCNCC1)N1CCN(C2c3ccc(Cl)cc3SCc3cccnc32)CC1 (stereo not drawn) [Example 12A, 4-(8-Chloro-5,11-dihydro-[1]benzothiepino[4,3-b]pyridin-11-yl)-1-(4-piperidinyl-acetyl)piperazine]
590 | O=C(CC1CCNCC1)N1CCC(=C2c3ccc(Cl)cc3SCc3cccnc32)CC1 [Example 12B, 4-(8-Chloro-5,11-dihydro-[1]benzothiepino[4,3-b]pyridin-11-ylidene)-1-(4-pipeeridine-acetyl)piperidine]
1000 | O=C(CSc1ccncc1)N1CCN(C2c3ccc(Cl)cc3SCc3cccnc32)CC1 (stereo not drawn) [Example 14A, 4-(8-Chloro-5,11-dihydro-[1]benzothiepino[4,3-b]pyridin-11-yl)-1-[(4-pyridinyl-thio)acetyl]piperazine]
920 | NC(=O)N1CCC(CC(=O)N2CCC(=C3c4ccc(Cl)cc4SCc4cccnc43)CC2)CC1 [Example 15B, 4-[2-[4-(8-Chloro-5,11-dihydro-[1]benzothiepino[4,3-b]pyridin-11-ylidene)-1-piperidinyl]-2-oxoethyl]-1-piperidinecarboxamide]
560 | O=C(Cc1ccncc1)N1CCC(=C2c3ccc(Cl)cc3S(=O)(=O)Cc3cccnc32)CC1 [Example 16B, 4-(8-Chloro-5,11-dihydro-[1]benzothiepino[4,3-b]pyridin-11-ylidene)-1-(4-pyridine-acetyl)piperidine 6,6-dioxide]
> 370 | N#CN=C(NCc1ccc2c(c1)OCO2)N1CCN(C2c3ccc(Cl)cc3SCc3cccnc32)CC1 (stereo not drawn) [Example 20A, N-[(1,3-Benzodioxol-5-yl)methyl]-4-(8-chloro-5,11-dihydro[1]benzothiepino[4,3-b]pyridin-11-yl)-N'-cyano-1-piperazine-carboximidamide]
> 113 | N#CN=C(NCc1ccc2c(c1)OCO2)N1CCC(=C2c3ccc(Cl)cc3SCc3cccnc32)CC1 [Example 20B]

Continued, compound first:

Compound | IC50 [nM]
O=C(Cc1ccccc1[N+](=O)[O-])C(=O)N1CCN(C2c3ccc(Cl)cc3SCc3cccnc32)CC1 (stereo not drawn) [Example 13] | 3800
O=C(Cc1ccncc1)N1CCN(C2c3ccc(Cl)cc3S(=O)(=O)Cc3cccnc32)CC1 (stereo not drawn) [Example 16A, 4-(8-Chloro-5,11-dihydro-[1]benzothiepino[4,3-b]pyridin-11-yl)-1-(4-pyridine-acetyl)piperazine 6,6-dioxide] | 1000
O=C(Cc1cc[n+]([O-])cc1)N1CCN(C2c3ccc(Cl)cc3S(=O)(=O)Cc3cccnc32)CC1 (stereo not drawn) [Example 17A (sulfone), 4-(8-Chloro-5,11-dihydro-[1]benzothiepino[4,3-b]pyridin-11-yl)-1-(4-pyridine-acetyl)piperazine N1,6,6-trioxide] | 3400
O=C(Cc1cc[n+]([O-])cc1)N1CCN(C2c3ccc(Cl)cc3[S+]([O-])Cc3cccnc32)CC1 (stereo not drawn) [Example 17A (sulfoxide), 4-(8-Chloro-5,11-dihydro-[1]benzothiepino[4,3-b]pyridin-11-yl)-1-(4-pyridine-acetyl)piperazine N1,6,-dioxide] | > 4000
CSC(=NC#N)N1CCN(C2c3ccc(Cl)cc3SCc3cccnc32)CC1 (stereo not drawn) [Example 18, Methyl 4-(8-chloro-5,11-dihydro-[1]benzothiepino[4,3-b]pyridin-11-yl)-N-cyano-1-piperazinecarboximidothioate] | 300
N#CNC(=NCc1ccncc1)N1CCN(C2c3ccc(Cl)cc3SCc3cccnc32)CC1 (stereo not drawn) [Example 19, 4-(8-Chloro-5,11-dihydro[1]benzothiepino[4,3-b]pyridin-11-yl)-N-cyano-N'-(4-pyridinylmethyl)-1-piperazine-carboximidamide] | 61
N#CN=C(NCc1ccc[n+]([O-])c1)N1CCN(C2c3ccc(Cl)cc3SCc3cccnc32)CC1 (stereo not drawn) [Example 21, 4-(8-Chloro-5,11-dihydro[1]benzothiepino[4,3-b]pyridin-11-yl)-N-cyano-N'-(3-pyridinylmethyl)-1-piperazine-carboximidamide N1-oxide] | 140
CSC(=NC#N)N1CCC(=C2c3ccc(Cl)cc3SCc3cccnc32)CC1 [Example 22] | 200
N#CNC(=NCc1ccncc1)N1CCC(=C2c3ccc(Cl)cc3SCc3cccnc32)CC1 [Example 23, 4-(8-Chloro-5,11-dihydro[1]benzothiepino[4,3-b]pyridin-11-ylidene)-N-cyano-N'-(4-pyridinylmethyl)-1-piperidine-carboximidamide] | 43
N#CN=C(NCc1ccc[n+]([O-])c1)N1CCC(=C2c3ccc(Cl)cc3SCc3cccnc32)CC1 [Example 24] | 38
O=C(Cc1ccncc1)N1CCC(=C2c3ccc(Cl)cc3SCc3cccnc32)CC1 [Example 25, 4-(8-Chloro-5,11-dihydro[1]benzothiepino[4,3-b]pyridin-11-ylidene)-1-(pyridine-4-acetyl)-piperidine] | 190
CN1CCC(CC(=O)N2CCC(=C3c4ccc(Cl)cc4SCc4cccnc43)CC2)CC1 [Example 26, 4-(8-Chloro-5,11-dihydro[1]benzothiepino[4,3-b]pyridin-11-ylidene)-1-(1-methyl-4-piperidine-acetyl)-piperidine] | 1790
CC(C)(C)OC(=O)N1CCC(CC(=O)N2CCC(=C3c4ccc(Cl)cc4S(=O)(=O)Cc4cccnc43)CC2)CC1 [Example 27] | > 1200
O=C(CC1CCNCC1)N1CCC(=C2c3ccc(Cl)cc3S(=O)(=O)Cc3cccnc32)CC1 [Example 28, 4-(8-Chloro-5,11-dihydro-[1]benzothiepino[4,3-b]pyridin-11-ylidene)-1-(4-piperidine-acetyl)piperidine-6,6-dioxide] | > 1200
NC(=O)N1CCC(CC(=O)N2CCC(=C3c4ccc(Cl)cc4S(=O)(=O)Cc4cccnc43)CC2)CC1 [Example 29, 4-[2-[4-(8-Chloro-5,11-dihydro-[1]benzothiepino[4,3-b]pyridin-11-ylidene)-1-piperidinyl]-2-oxoethyl]-1-piperidinecarboxamide-6,6-dioxide] | > 1100
CC1(C)c2cccnc2C(=C2CCN(C(=O)Cc3cc[n+]([O-])cc3)CC2)c2ccc(Cl)cc2S1(=O)=O [Example 30, 4-(8-Chloro-5,11-dihydro-5,5-dimethyl-[1]benzothiepino[4,3-b]pyridin-11-ylidene)-1-(4-pyridine-acetyl)piperidine-6,6-dioxide N1-oxide] | > 1100
O=C(Cc1ccncc1)N1CCN(C2c3ccc(Cl)cc3[S+]([O-])Cc3cccnc32)CC1 (stereo not drawn) [Example 31, 4-(8-Chloro-5,11-dihydro-[1]benzothiepino[4,3-b]pyridin-11-yl)-1-(4-pyridine-acetyl)piperazine-6-oxide] | 5000
NC(=O)N1CCC(CC(=O)N2CCN(C3c4ccc(Cl)cc4[S+]([O-])Cc4cccnc43)CC2)CC1 (stereo not drawn) [Example 32, 4-[2-[4-(8-Chloro-5,11-dihydro-[1]benzothiepino[4,3-b]pyridin-11-yl)-1-piperazinyl]-2-oxoethyl]-1-piperidinecarboxamide 6-oxide] | > 380
N#CC=C(c1ccc(F)cc1)N1CCC(=C2c3ccc(Cl)cc3SCc3cccnc32)CC1 [Example 33, 3-[4-(8-Chloro-5,11-dihydro-[1]benzothiepino[4,3-b]pyridin-11-ylidene)-piperidin-1-yl]-3-(4'-fluorophenyl)-2-propene-nitrile] | > 420
CN1Cc2cccnc2C(N2CCN(C(=O)Cc3cc[n+]([O-])cc3)CC2)c2ccc(Cl)cc21 (stereo not drawn) [Example 34] | 2700
CN1Cc2cccnc2C(N2CCN(C(=O)Cc3ccncc3)CC2)c2ccc(Cl)cc21 (stereo not drawn) [Example 35, 4-(8-Chloro-6,11-dihydro-6-methyl-5H-pyrido[3,2-c][1]benzazepin-11-yl)-1-(4-pyridine-acetyl)piperazine] | 840
CSC(=NC#N)N1CCN(C2c3ccc(Cl)cc3N(C)Cc3cccnc32)CC1 (stereo not drawn) [Example 36, Methyl 4-(8-chloro-6,11-dihydro-6-methyl-5H-pyrido[3,2-c][1]benzazepin-11-yl)-N-cyano-1-piperazinecarboximidothioate] | 1100
CN1Cc2cccnc2C(N2CCN(C(=NCc3ccncc3)NC#N)CC2)c2ccc(Cl)cc21 (stereo not drawn) [Example 37, 4-(8-Chloro-6,11-dihydro-6-methyl-5H-pyrido[3,2-c][1]benzazepin-11-yl)-N-cyano-N'-(4-pyridinylmethyl)-1-piperazine-carboximidamide] | 140
CN1Cc2cccnc2C(N2CCN(C(=O)CC3CCN(C(=O)OC(C)(C)C)CC3)CC2)c2ccc(Cl)cc21 (stereo not drawn) [Example 38, 1,1-Dimethylethyl 4-[2-[4-(8-chloro-6,11-dihydro-6-methyl-5H-pyrido[3,2-c][1]benzazepin-11-yl)-1-piperazinyl]2-oxoethyl]-1-piperidine-carboxylate] | > 3600
CN1Cc2cccnc2C(N2CCN(C(=O)CC3CCNCC3)CC2)c2ccc(Cl)cc21 (stereo not drawn) [Example 39, 4-(8-Chloro-6,11-dihydro-6-methyl-5H-pyrido[3,2-c][1]benzazepin-11-yl)-1-(4-piperidine-acetyl)piperazine] | > 1300
